Measured values reported in US7718668B2, “Salts of 6-heterocycle substituted hexahydrophenanthridine derivatives” (Nycomed GmbH, priority 2005, dated 2010).
Where a name gives a salt, the structure may show the parent alone.

Structure (SMILES) | melting point [°C]
CCOc1cc2c(cc1OC)C(c1ccc(OC)nc1OC)=N[C@@H]1CC[C@@H](O)C[C@H]21 (as salt: hydrobromid) [compound 8, (2R,4aR,10bR)-6-(2,6-Dimethoxy-pyridin-3-yl)-9-ethoxy-8-methoxy-1,2,3,4,4a, 10b-hexahydro-phenanthridin-2-ol] | 163
CCOc1cc2c(cc1OC)C(c1ccc(OC)nc1OC)=N[C@@H]1CC[C@@H](O)C[C@H]21 (as salt: mesylate) [compound 8, (2R,4aR,10bR)-6-(2,6-Dimethoxy-pyridin-3-yl)-9-ethoxy-8-methoxy-1,2,3,4,4a, 10b-hexahydro-phenanthridin-2-ol] | 193
CCOc1cc2c(cc1OC)C(c1ccc(OC)nc1OC)=N[C@@H]1CC[C@@H](O)C[C@H]21 (as salt: hydrochloride) [compound 8, (2R,4aR,10bR)-6-(2,6-Dimethoxy-pyridin-3-yl)-9-ethoxy-8-methoxy-1,2,3,4,4a, 10b-hexahydro-phenanthridin-2-ol] | 164
CCOc1cc2c(cc1OC)C(c1ccc(=O)n(C)c1)=N[C@@H]1CC[C@@H](O)C[C@H]21 (as salt: tartrate) [compound 9, 5-((2R,4aR,10bR)-9-Ethoxy-2-hydroxy-8-methoxy-1,2,3,4,4a, 10b-hexahydro-phenanthridin-6-yl)-1-methyl-1H-pyridin-2-one] | 205
CCOc1cc2c(cc1OC)C(c1ccc(=O)n(C)c1)=N[C@@H]1CC[C@@H](O)C[C@H]21 [compound 9, 5-((2R,4aR,10bR)-9-Ethoxy-2-hydroxy-8-methoxy-1,2,3,4,4a, 10b-hexahydro-phenanthridin-6-yl)-1-methyl-1H-pyridin-2-one] | 147
CCOc1cc2c(cc1OC)C(c1ccc(=O)n(C)c1)=N[C@@H]1CC[C@@H](O)C[C@H]21 (as salt: fumarate) [compound 9, 5-((2R,4aR,10bR)-9-Ethoxy-2-hydroxy-8-methoxy-1,2,3,4,4a, 10b-hexahydro-phenanthridin-6-yl)-1-methyl-1H-pyridin-2-one] | 156
CCOc1cc2c(cc1OC)C(c1ccc(OC)nc1OC)=N[C@@H]1CC[C@@H](O)C[C@H]21 (as salt: tosylate) [compound 8, (2R,4aR,10bR)-6-(2,6-Dimethoxy-pyridin-3-yl)-9-ethoxy-8-methoxy-1,2,3,4,4a, 10b-hexahydro-phenanthridin-2-ol] | 218
CCOc1cc2c(cc1OC)C(c1cnc(OC)cc1OC)=N[C@@H]1CC[C@@H](O)C[C@H]21 (as salt: fumarate) [compound 12, (2R,4aR,10bR)-6-(4,6-Dimethoxy-pyridin-3-yl)-9-ethoxy-8-methoxy-1,2,3,4,4a, 10b-hexahydro-phenanthridin-2-ol] | 194
CCOc1cc2c(cc1OC)C(c1ccc(-n3cccn3)nc1)=N[C@@H]1CC[C@@H](O)C[C@H]21 (as salt: fumarate) [compound 3, (2R,4aR,10bR)-9-Ethoxy-8-methoxy-6-(6-pyrazol-1-yl-pyridin-3-yl)-1,2,3,4,4a, 10b-hexahydro-phenanthridin-2-ol] | 170

Results, then the compound that gave them:

melting point [°C] | Structure (SMILES)
173 | CCOc1cc2c(cc1OC)C(c1ccc(OC)nc1)=N[C@@H]1CC[C@@H](O)C[C@H]21 (as salt: fumarate) [compound 10, (2R,4aR,10bR)-9-Ethoxy-8-methoxy-6-(6-methoxy-pyridin-3-yl)-1,2,3,4,4a, 10b-hexahydro-phenanthridin-2-ol]
123 | CCOc1cc2c(cc1OC)C(c1cnc(N(C)C)nc1OC)=N[C@@H]1CC[C@@H](O)C[C@H]21 (as salt: fumarate) [compound 11, (2R,4aR,10bR)-6-(2-Dimethylamino-4-methoxy-pyrimidin-5-yl)-9-ethoxy-8-methoxy-1,2,3,4,4a, 10b-hexahydro-phenanthridin-2-ol]
124 | CCOc1cc2c(cc1OC)C(c1cnc(N(C)C)nc1OC)=N[C@@H]1CC[C@@H](O)C[C@H]21 [compound 11, (2R,4aR,10bR)-6-(2-Dimethylamino-4-methoxy-pyrimidin-5-yl)-9-ethoxy-8-methoxy-1,2,3,4,4a, 10b-hexahydro-phenanthridin-2-ol]
112 | CCOc1cc2c(cc1OC)C(c1cnc(N(C)C)nc1)=N[C@@H]1CC[C@@H](O)C[C@H]21 [compound 13, (2R,4aR,10bR)-6-(2-Dimethylamino-pyrimidin-5-yl)-9-ethoxy-8-methoxy-1,2,3,4,4a, 10b-hexahydro-phenanthridin-2-ol]
210 | CCOc1cc2c(cc1OC)C(c1cnc(N(C)C)nc1)=N[C@@H]1CC[C@@H](O)C[C@H]21 (as salt: fumarate) [compound 13, (2R,4aR,10bR)-6-(2-Dimethylamino-pyrimidin-5-yl)-9-ethoxy-8-methoxy-1,2,3,4,4a, 10b-hexahydro-phenanthridin-2-ol]
249 | CCOc1cc2c(cc1OC)C(c1cnc(N(C)C)nc1OC)=N[C@@H]1CC[C@@H](O)C[C@H]21 (as salt: tartrate) [compound 11, (2R,4aR,10bR)-6-(2-Dimethylamino-4-methoxy-pyrimidin-5-yl)-9-ethoxy-8-methoxy-1,2,3,4,4a, 10b-hexahydro-phenanthridin-2-ol]
206 | CCOc1cc2c(cc1OC)C(c1cnc(N(C)C)nc1)=N[C@@H]1CC[C@@H](O)C[C@H]21 (as salt: tartrate) [compound 13, (2R,4aR,10bR)-6-(2-Dimethylamino-pyrimidin-5-yl)-9-ethoxy-8-methoxy-1,2,3,4,4a, 10b-hexahydro-phenanthridin-2-ol]
124 | CCOc1cc2c(cc1OC)C(c1cnc(OC)nc1)=N[C@@H]1CC[C@@H](O)C[C@H]21 [compound 4, (2R,4aR,10bR)-9-Ethoxy-8-methoxy-6-(2-methoxy-pyrimidin-5-yl)-1,2,3,4,4a, 10b-hexahydro-phenanthridin-2-ol]
